Source: patent publication US6822100B2 (Bristol-Myers Squibb Company, priority 2001, dated 2004)
Read-outs that look alike come from different tables or passages of the source.

Legend:
[1] = molecular target: T1, human serotonin transporters (Homo sapiens, UniProt P31645); experiment: Serotonin Transporter Binding Assay; settings: HEK-hSERT cell membranes, 1 nM [3H]-citalopram, Cheng and Prusoff
T1 construct: expressed in transfected cells; host or cells: HEK-293 (HEK-hSERT), membrane homogenates
Method: HEK-293 cells that stably express human serotonin transporters (HEK-hSERT cells) were grown at 37° C. in 5% CO2 as a monolayer in medium consisting of EMEM supplemented with 10% fetal bovine serum and G418 sulfate (500 μg/ml). To prepare membranes for radioligand binding experiments, cells were rinsed twice with phosphate-buffered saline (138 mM NaCl, 4.1 mM KCl, 5.1 mM Na2PO4, 1.5 mM […], 11.1 mM glucose, pH 7.4). Cells were transferred from plates to polypropylene tubes (16×100 mm), centrifuged at 1,200×g for 5 min and were frozen at −80° C. until assay. Following centrifugation, pellets were resuspended by homogenization in buffer consisting of 50 mM Tris (pH 7.7 at 25° C.), 120 mM NaCl and 5 mM KCl and then centrifuged at 32,000×g for 10 min. Following centrifugation, supernatants were discarded and pellets were resuspended in buffer consisting of 50 mM Tris (pH 7.4 at 25° C.), 150 mM NaCl and 5 mM KCl. Membrane homogenates (200 μl/plate) were incubated with 1 nM [^3H]-citalopram (specific activity=85 Ci/mmol) and increasing concentrations of test compounds for 1 hr at 25° C. in a total volume of 250 μl. The assay buffer consisted of 50 mM Tris (pH 7.4 at 25° C.), 120 mM NaCl and 5 mM KCl (pH 7.4 with conc. HCl). Plates were incubated for 1 hr at 25° C., then filtered through 0.5% PEI treated Whatman GF/B filters using a Brandel cell harvester. Filters were washed three times with 3 ml of ice-cold tris wash buffer. Non-specific binding was defined with 10 μM fluoxetine. Amount of radioligand bound in the presence and absence of competitor was analyzed by plotting (−)log drug concentration versus the amount of radioligand specifically bound. The midpoint of the displacement curve (IC50, nM), signifies the potency. Ki values were calculated using the method of Cheng and Prusoff (1973).

[2] = molecular target: T2, recombinant human dopamine D2L receptors (Homo sapiens, UniProt P14416); experiment: Dopamine Binding Assay; settings: HEK-D2L cell membranes, 150 pM [3H]-spiperone, Cheng and Prusoff
T2 construct: expressed in transfected cells; host or cells: HEK-293 (HEK-D2L), membrane homogenates
Method: HEK-293 cells that stably express recombinant human dopamine D2L receptors (HEK-D2L cells) were grown at 37° C. in 5% CO2 as a monolayer in medium consisting of EMEM supplemented with 10% fetal bovine serum and G418 sulfate (500 μg/ml). To prepare membranes for radioligand binding experiments, cells were rinsed twice with phosphate-buffered saline (138 mM NaCl, 4.1 mM KCl, 5.1 mM Na2PO4, 1.5 mM KH2PO2 11.1 mM glucose, pH 7.4), and incubated for 5-10 min. at 4° C. in hypotonic lysis buffer consisting of 10 mM Tris (pH 7.4) and 5 mM EDTA. Cells were transferred from plates to polypropylene tubes (16×100 mm), homogenized and centrifuged at 32,000×g for 20 min. Following centrifugation, pellets were resuspended by homogenization in buffer consisting of 50 mM Tris (pH 7.7 at 25° C.) and 1 mM EDTA. Homogenates were stored at −80° C. until needed. On the day of an experiment, homogenates were thawed then centrifuged at 32,000×g for 20 min. Following centrifugation, supernatants were discarded and pellets were resuspended in assay buffer consisting of 50 mM Tris (pH 7.4 at 25° C.), 1 mM EDTA and 6 mM MgCl2. Membrane homogenates (˜5 μg) were incubated with 150 pM [^3H]-spiperone (Amersham Life Science) and increasing concentrations of test compounds for 1.5 hr at 22° C. in a total volume of 400 μl. Reactions were stopped by addition of ice-cold assay buffer and filtration over glass fiber filters (Whatman GFB, pre-soaked in 0.05% polyethylenimine) using a microtitre format Brandel cell harvester. Filters were washed with 3 ml of ice-cold assay buffer. Non-specific binding was defined with 2 μM (+)butaclamol. Ki values were calculated using the method of Cheng and Prusoff (1973). Protein concentrations were determined by the method of Bradford (1976) with BSA as a standard.

T2 sequence (P14416 whole entry): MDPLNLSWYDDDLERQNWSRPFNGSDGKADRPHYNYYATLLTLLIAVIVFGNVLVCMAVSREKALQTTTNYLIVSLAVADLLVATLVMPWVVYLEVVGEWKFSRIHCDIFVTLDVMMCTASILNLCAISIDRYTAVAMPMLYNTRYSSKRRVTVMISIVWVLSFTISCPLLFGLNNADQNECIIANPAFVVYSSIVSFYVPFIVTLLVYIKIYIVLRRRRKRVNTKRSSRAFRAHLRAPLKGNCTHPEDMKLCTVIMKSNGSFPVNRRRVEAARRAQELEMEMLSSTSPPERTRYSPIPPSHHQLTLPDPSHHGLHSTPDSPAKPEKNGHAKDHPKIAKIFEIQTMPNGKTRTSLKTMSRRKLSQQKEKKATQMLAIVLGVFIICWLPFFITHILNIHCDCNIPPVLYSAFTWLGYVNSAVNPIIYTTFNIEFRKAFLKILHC
T1 sequence (P31645 whole entry): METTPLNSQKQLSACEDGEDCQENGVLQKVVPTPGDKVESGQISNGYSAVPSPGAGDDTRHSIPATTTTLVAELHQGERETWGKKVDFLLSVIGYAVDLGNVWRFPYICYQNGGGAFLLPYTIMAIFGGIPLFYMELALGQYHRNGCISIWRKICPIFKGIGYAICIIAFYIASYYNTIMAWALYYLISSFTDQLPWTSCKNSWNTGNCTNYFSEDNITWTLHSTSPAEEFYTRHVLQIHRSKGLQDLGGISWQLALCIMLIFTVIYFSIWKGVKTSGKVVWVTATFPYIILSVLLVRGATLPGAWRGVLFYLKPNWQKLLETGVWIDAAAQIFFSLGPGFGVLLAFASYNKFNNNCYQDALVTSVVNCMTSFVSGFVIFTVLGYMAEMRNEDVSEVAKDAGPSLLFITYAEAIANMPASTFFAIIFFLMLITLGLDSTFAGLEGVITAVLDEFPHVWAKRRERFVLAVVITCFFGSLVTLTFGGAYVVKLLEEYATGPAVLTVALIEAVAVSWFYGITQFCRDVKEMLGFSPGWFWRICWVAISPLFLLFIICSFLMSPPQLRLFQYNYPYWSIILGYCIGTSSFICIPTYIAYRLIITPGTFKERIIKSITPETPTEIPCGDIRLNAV

Structure (SMILES)	Ki ([1]; read-out: SERT Ki) [nM]	Ki [2] [nM]	Ki ([1]; SERT Ki (nM)) [nM]
CNCC1CC1c1c[nH]c2ccc(C#N)cc12 (racemic) [Example 119, trans-2-[5-Cyanoindol-3-yl]-1-(N-methylaminomethyl)cyclopropane]	1 to 10	100 to 1000	
CC(C1CC1c1c[nH]c2ccc(C#N)cc12)N(C)C (racemic) [Example 121, trans-3-[2-(1-Dimethylamino-ethyl)-cyclopropyl]-1H-indole-5-carbonitrile]		> 1000	< 1
CCN(CC)C(C)C1CC1c1c[nH]c2ccc(C#N)cc12 (racemic) [Example 123, trans-3-[2-(1-Diethylamino-ethyl)-cyclopropyl]-1H-indole-5-carbonitrile]		> 1000	10 to 100
CNC(C)C1CC1c1c[nH]c2ccc(C#N)cc12 (racemic) [Example 125, trans-3-[2-(1-Methylamino-ethyl)-cyclopropyl]-1H-indole-5-carbonitrile]	1 to 10	100 to 1000	
CCNC(C)C1CC1c1c[nH]c2ccc(C#N)cc12 (racemic) [Example 126, trans-3-[2-(1-Ethylamino-ethyl)-cyclopropyl]-1H-indole-5-carbonitrile]	10 to 100	100 to 1000	
CNC[C@H]1C[C@@H]1c1c[nH]c2cc(C(F)(F)F)ccc12 (racemic) [Example 155, Methyl-[2-(6-trifluoromethyl-1H-indol-3-yl)-cyclopropylmethyl]-amine]		> 1000	10 to 100
CNC[C@H]1C[C@@H]1c1c[nH]c2cc(C#N)ccc12 (racemic) [Example 158, 3-(2-Methylaminomethyl-cyclopropyl)-1H-indole-6-carbonitrile]		> 1000	10 to 100
CCN(CC)C[C@H]1C[C@@H]1c1c[nH]c2cc(C#N)ccc12 (racemic) [Example 160, 3-(2-Diethylaminomethyl-cyclopropyl)-1H-indole-6-carbonitrile]		> 1000	10 to 100
CN(Cc1ccccc1)C[C@H]1C[C@@H]1c1c[nH]c2cc(C#N)ccc12 (racemic) [Example 162, 3-{2-[(Benzyl-methyl-amino)-methyl]-cyclopropyl}-1H-indole-6-carbonitrile]	10 to 100	100 to 1000	
CN(Cc1ccccc1)C[C@@H]1C[C@H]1c1c[nH]c2ccc(C#N)cc12 (relative stereo) [Example 3, Trans-2-[5-Cyanoindol-3-yl]-1-[N,N-methyl-benzylaminomethyl]-cyclopropane]	< 1	100 to 1000	
N#Cc1ccc2[nH]cc([C@@H]3C[C@H]3CNCc3ccccc3)c2c1 (relative stereo) [Example 7, trans-1-(N-Benzlyaminomethyl)-2-[5-cyanoindol-3-yl]-cyclopropane]	1 to 10	100 to 1000	
COc1ccccc1CNC[C@@H]1C[C@H]1c1c[nH]c2ccc(C#N)cc12 (relative stereo) [Example 8, trans-2-[5-Cyanoindol-3-yl]-1-[N-(2-methoxybenzyl)aminomethyl]-cyclopropane]	1 to 10	100 to 1000	
COc1cccc(CNC[C@@H]2C[C@H]2c2c[nH]c3ccc(C#N)cc23)c1 (relative stereo) [Example 9, trans-2-[5-Cyanoindol-3-yl]-1-[N-(3-methoxybenzyl)aminomethyl]-cyclopropane]	1 to 10	100 to 1000	
COc1ccc(CNC[C@@H]2C[C@H]2c2c[nH]c3ccc(C#N)cc23)cc1 (relative stereo) [Example 10, trans-2-[5-Cyanoindol-3-yl]-1-[N-(4-methoxybenzyl)amnomethyl]-cyclopropane]	1 to 10	100 to 1000	
N#Cc1ccc2[nH]cc([C@@H]3C[C@H]3CNCc3ccccc3F)c2c1 (relative stereo) [Example 11, trans-2-[5-Cyanoindol-3-yl]-1-[N-(2-fluorobenzyl)aminomethyl]-cyclopropane]	1 to 10	100 to 1000	
CN(C)CCC1CC1c1c[nH]c2ccc(C#N)cc12 (stereo not shown) [Example 193, 3-[2-(2-Dimethylamino-ethyl)-cyclopropyl]-1H-indole-5-carbonitrile]	1 to 10		
